From the supplement of paper PMC10307832

Experiments:
Test in all cases: relative viability (nuclei count vs DMSO), 5 days (fraction); higher = more cells survive
[1] = compound: CN(C)C[C@@H]1CCn2cc(c3ccccc32)C2=C(C(=O)NC2=O)c2cn(c3ccccc23)CCO1 [Ruboxistaurin] + Cc1nc(Nc2ncc(C(=O)Nc3c(C)cccc3Cl)s2)cc(N2CCN(CCO)CC2)n1 [Dasatinib] (partner 0.075 µM)
Outline: (§1)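 Relative viability equals treated-well nuclei counts divided by vehicle-well nuclei counts. Counts came from 4× images of lung cancer cell lines grown in 1536-well plates for 5 days after pin-tool dosing on the day after seeding. Dosing used one drug alone or a fixed anchor-drug dose plus five library-drug doses (not always all listed) in √10 steps, and values are medians of duplicate plates.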

Ruboxistaurin + AZD7762 = compound: CN(C)C[C@@H]1CCn2cc(c3ccccc32)C2=C(C(=O)NC2=O)c2cn(c3ccccc23)CCO1 [Ruboxistaurin] + NC(=O)Nc1cc(-c2cccc(F)c2)sc1C(=O)N[C@H]1CCCNC1 [AZD7762] (partner 0.2 µM)
Outline: as §1

[2] = compound: CN(C)C[C@@H]1CCn2cc(c3ccccc32)C2=C(C(=O)NC2=O)c2cn(c3ccccc23)CCO1 [Ruboxistaurin] + Cc1cc(Nc2cc(N3CCN(C)CC3)nc(Sc3ccc(NC(=O)C4CC4)cc3)n2)n[nH]1 [Tozasertib] (partner 0.1 µM)
Outline: as §1

[3] = compound: CN(C)C[C@@H]1CCn2cc(c3ccccc32)C2=C(C(=O)NC2=O)c2cn(c3ccccc23)CCO1 [Ruboxistaurin] + N=C(N)NC(=N)NCCc1ccccc1 [Phenformin] (partner 250 µM)
Outline: as §1

[4] = compound: CN(C)C[C@@H]1CCn2cc(c3ccccc32)C2=C(C(=O)NC2=O)c2cn(c3ccccc23)CCO1 [Ruboxistaurin] + Nc1nc2[nH]cc(CCc3ccc(C(=O)N[C@@H](CCC(=O)O)C(=O)O)cc3)c2c(=O)[nH]1 [Pemetrexed] (partner 0.2 µM)
Outline: as §1

Ruboxistaurin + OSI-027 = compound: CN(C)C[C@@H]1CCn2cc(c3ccccc32)C2=C(C(=O)NC2=O)c2cn(c3ccccc23)CCO1 [Ruboxistaurin] + COc1cccc2cc(-c3nc([C@H]4CC[C@H](C(=O)O)CC4)n4ncnc(N)c34)[nH]c12 [OSI-027] (partner 0.5 µM)
Outline: as §1

[5] = compound: CN(C)C[C@@H]1CCn2cc(c3ccccc32)C2=C(C(=O)NC2=O)c2cn(c3ccccc23)CCO1 [Ruboxistaurin] + CC(=O)c1c(C)c2cnc(Nc3ccc(N4CCNCC4)cn3)nc2n(C2CCCC2)c1=O [Palbociclib] (partner 0.5 µM)
Outline: as §1

[6] = compound: CN(C)C[C@@H]1CCn2cc(c3ccccc32)C2=C(C(=O)NC2=O)c2cn(c3ccccc23)CCO1 [Ruboxistaurin] + CC(=O)Nc1cccc(-n2c(=O)n(C3CC3)c(=O)c3c(Nc4ccc(I)cc4F)n(C)c(=O)c(C)c32)c1 [Trametinib] (partner 0.02 µM)
Outline: as §1

[7] = compound: CN(C)C[C@@H]1CCn2cc(c3ccccc32)C2=C(C(=O)NC2=O)c2cn(c3ccccc23)CCO1 [Ruboxistaurin] + CCNC(=O)c1noc(-c2cc(C(C)C)c(O)cc2O)c1-c1ccc(CN2CCOCC2)cc1 [Luminespib] (partner 0.01 µM)
Outline: as §1

Ruboxistaurin + Olaparib = compound: CN(C)C[C@@H]1CCn2cc(c3ccccc32)C2=C(C(=O)NC2=O)c2cn(c3ccccc23)CCO1 [Ruboxistaurin] + O=C(c1cc(Cc2n[nH]c(=O)c3ccccc23)ccc1F)N1CCN(C(=O)C2CC2)CC1 [Olaparib] (partner 8 µM)
Outline: as §1

[8] = compound: CN(C)C[C@@H]1CCn2cc(c3ccccc32)C2=C(C(=O)NC2=O)c2cn(c3ccccc23)CCO1 [Ruboxistaurin] + Nc1ncn([C@H]2C[C@H](O)[C@@H](CO)O2)c(=O)n1 [Decitabine] (partner 2 µM)
Outline: as §1

[9] = compound: CN(C)C[C@@H]1CCn2cc(c3ccccc32)C2=C(C(=O)NC2=O)c2cn(c3ccccc23)CCO1 [Ruboxistaurin] + O=C(CCCCCCC(=O)Nc1ccccc1)NO [Vorinostat] (partner 1 µM)
Outline: as §1

Ruboxistaurin = compound: CN(C)C[C@@H]1CCn2cc(c3ccccc32)C2=C(C(=O)NC2=O)c2cn(c3ccccc23)CCO1 [Ruboxistaurin]
Outline: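 Five library-drug doses spaced by √10 were pinned onto vehicle-anchored 1536-well plates of lung cancer cell lines that had been kept overnight at 37 °C. Cells went 5 days without medium change, then were fixed, permeabilised and Hoechst-stained together, imaged at 4× and counted by MetaXpress. Viability is the ratio of treated-well to vehicle-well nuclei, taken as a median over plates. Plates required control CV below 25% and at least one doubling.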

[10] = compound: CN(C)C[C@@H]1CCn2cc(c3ccccc32)C2=C(C(=O)NC2=O)c2cn(c3ccccc23)CCO1 [Ruboxistaurin] + C[C@@H](Oc1cc(-c2cnn(C3CCNCC3)c2)cnc1N)c1c(Cl)ccc(F)c1Cl [Crizotinib] (partner 1 µM)
Outline: as §1

[11] = compound: CN(C)C[C@@H]1CCn2cc(c3ccccc32)C2=C(C(=O)NC2=O)c2cn(c3ccccc23)CCO1 [Ruboxistaurin] + CS(=O)(=O)N1CCN(Cc2cc3nc(-c4cccc5[nH]ncc45)nc(N4CCOCC4)c3s2)CC1 [Pictilisib] (partner 1 µM)
Outline: as §1

[12] = compound: CN(C)C[C@@H]1CCn2cc(c3ccccc32)C2=C(C(=O)NC2=O)c2cn(c3ccccc23)CCO1 [Ruboxistaurin] + CS(=O)(=O)CCNCc1ccc(-c2ccc3ncnc(Nc4ccc(OCc5cccc(F)c5)c(Cl)c4)c3c2)o1 [Lapatinib] (partner 2 µM)
Outline: as §1

[13] = compound: CN(C)C[C@@H]1CCn2cc(c3ccccc32)C2=C(C(=O)NC2=O)c2cn(c3ccccc23)CCO1 [Ruboxistaurin] + CC(C)C[C@H](NC(=O)[C@H](Cc1ccccc1)NC(=O)c1cnccn1)B(O)O [Bortezomib] (partner 0.002 µM)
Outline: as §1

[14] = compound: CN(C)C[C@@H]1CCn2cc(c3ccccc32)C2=C(C(=O)NC2=O)c2cn(c3ccccc23)CCO1 [Ruboxistaurin] + CC1(C)CCC(c2ccc(Cl)cc2)=C(CN2CCN(c3ccc(C(=O)NS(=O)(=O)c4ccc(N[C@H](CCN5CCOCC5)CSc5ccccc5)c(S(=O)(=O)C(F)(F)F)c4)cc3)CC2)C1 [Navitoclax] (partner 0.5 µM)
Outline: as §1

[15] = compound: CN(C)C[C@@H]1CCn2cc(c3ccccc32)C2=C(C(=O)NC2=O)c2cn(c3ccccc23)CCO1 [Ruboxistaurin] + COc1cc2c(Oc3ccc(NC(=O)C4(C(=O)Nc5ccc(F)cc5)CC4)cc3F)ccnc2cc1OCCCN1CCOCC1 [Foretinib] (partner 0.25 µM)
Outline: as §1

[16] = compound: CN(C)C[C@@H]1CCn2cc(c3ccccc32)C2=C(C(=O)NC2=O)c2cn(c3ccccc23)CCO1 [Ruboxistaurin] + Cc1nc(NC(=O)N2CCC[C@H]2C(N)=O)sc1-c1ccnc(C(C)(C)C(F)(F)F)c1 [Alpelisib] (partner 2 µM)
Outline: as §1

[17] = compound: CN(C)C[C@@H]1CCn2cc(c3ccccc32)C2=C(C(=O)NC2=O)c2cn(c3ccccc23)CCO1 [Ruboxistaurin] + C[C@]1(O)C[C@@H](c2nc(-c3ccc4ccc(-c5ccccc5)nc4c3)c3c(N)nccn32)C1 [Linsitinib] (partner 1 µM)
Outline: as §1

## NCI-H522
[1]; first compound 0.08 µM
  relative viability: 0.835
[1]; first compound 0.8 µM
  relative viability: 0.83
[1]; first compound 2.53 µM
  relative viability: 0.953
[1]; first compound 8 µM
  relative viability: 0.719
Ruboxistaurin + AZD7762; first compound 0.08 µM
  relative viability: 0.987
Ruboxistaurin + AZD7762; first compound 0.8 µM
  relative viability: 0.804
Ruboxistaurin + AZD7762; first compound 2.53 µM
  relative viability: 0.833
Ruboxistaurin + AZD7762; first compound 8 µM
  relative viability: 0.81
[2]; first compound 0.08 µM
  relative viability: 0.502
[2]; first compound 0.8 µM
  relative viability: 0.502
[2]; first compound 2.53 µM
  relative viability: 0.563
[2]; first compound 8 µM
  relative viability: 0.524
[3]; first compound 0.08 µM
  relative viability: 0.675
[3]; first compound 0.8 µM
  relative viability: 0.605
[3]; first compound 2.53 µM
  relative viability: 0.703
[3]; first compound 8 µM
  relative viability: 0.622
[4]; first compound 0.08 µM
  relative viability: 1.06
[4]; first compound 0.8 µM
  relative viability: 0.791
[4]; first compound 2.53 µM
  relative viability: 1.18
[4]; first compound 8 µM
  relative viability: 1.02
Ruboxistaurin + OSI-027; first compound 0.08 µM
  relative viability: 0.741
Ruboxistaurin + OSI-027; first compound 0.8 µM
  relative viability: 0.783
Ruboxistaurin + OSI-027; first compound 2.53 µM
  relative viability: 0.909
Ruboxistaurin + OSI-027; first compound 8 µM
  relative viability: 0.689
[5]; first compound 0.08 µM
  relative viability: 1.06
[5]; first compound 0.8 µM
  relative viability: 1.06
[5]; first compound 2.53 µM
  relative viability: 1.21
[5]; first compound 8 µM
  relative viability: 1.25
[6]; first compound 0.08 µM
  relative viability: 0.767
[6]; first compound 0.8 µM
  relative viability: 0.586
[6]; first compound 2.53 µM
  relative viability: 0.754
[6]; first compound 8 µM
  relative viability: 0.764
[7]; first compound 0.08 µM
  relative viability: 1.23
[7]; first compound 0.8 µM
  relative viability: 1.1
[7]; first compound 2.53 µM
  relative viability: 0.974
[7]; first compound 8 µM
  relative viability: 1.04
Ruboxistaurin + Olaparib; first compound 0.08 µM
  relative viability: 0.71
Ruboxistaurin + Olaparib; first compound 0.8 µM
  relative viability: 0.676
Ruboxistaurin + Olaparib; first compound 2.53 µM
  relative viability: 0.637
Ruboxistaurin + Olaparib; first compound 8 µM
  relative viability: 0.728
[8]; first compound 0.08 µM
  relative viability: 0.753
[8]; first compound 0.8 µM
  relative viability: 0.671
[8]; first compound 2.53 µM
  relative viability: 0.667
[8]; first compound 8 µM
  relative viability: 0.658
[9]; first compound 0.08 µM
  relative viability: 1.01
[9]; first compound 0.8 µM
  relative viability: 0.9
[9]; first compound 2.53 µM
  relative viability: 1.05
[9]; first compound 8 µM
  relative viability: 0.931
Ruboxistaurin; 0.08 µM
  relative viability: 0.949
Ruboxistaurin; 0.8 µM
  relative viability: 1.05
Ruboxistaurin; 2.53 µM
  relative viability: 0.869
Ruboxistaurin; 8 µM
  relative viability: 0.892

## NCI-H1299
[10]; first compound 0.08 µM
  relative viability: 0.921
[10]; first compound 0.8 µM
  relative viability: 0.978
[10]; first compound 2.53 µM
  relative viability: 0.99
[10]; first compound 8 µM
  relative viability: 1.02
[11]; first compound 0.08 µM
  relative viability: 0.841
[11]; first compound 0.8 µM
  relative viability: 0.51
[11]; first compound 2.53 µM
  relative viability: 0.731
[11]; first compound 8 µM
  relative viability: 0.45
[12]; first compound 0.08 µM
  relative viability: 0.997
[12]; first compound 0.8 µM
  relative viability: 0.931
[12]; first compound 2.53 µM
  relative viability: 0.993
[12]; first compound 8 µM
  relative viability: 0.962
[13]; first compound 0.08 µM
  relative viability: 1.05
[13]; first compound 0.8 µM
  relative viability: 1.02
[13]; first compound 2.53 µM
  relative viability: 1.05
[13]; first compound 8 µM
  relative viability: 1.08
[14]; first compound 0.08 µM
  relative viability: 1.08
[14]; first compound 0.8 µM
  relative viability: 1.01
[14]; first compound 2.53 µM
  relative viability: 1.07
[14]; first compound 8 µM
  relative viability: 1.06
[15]; first compound 0.08 µM
  relative viability: 1.11
[15]; first compound 0.8 µM
  relative viability: 1.11
[15]; first compound 2.53 µM
  relative viability: 1.16
[15]; first compound 8 µM
  relative viability: 1.21
[16]; first compound 0.08 µM
  relative viability: 1.08
[16]; first compound 0.8 µM
  relative viability: 1.07
[16]; first compound 2.53 µM
  relative viability: 1.07
[16]; first compound 8 µM
  relative viability: 1.16
[17]; first compound 0.08 µM
  relative viability: 1.03
[17]; first compound 0.8 µM
  relative viability: 0.921
[17]; first compound 2.53 µM
  relative viability: 0.951
[17]; first compound 8 µM
  relative viability: 1.15
Ruboxistaurin + Olaparib; first compound 0.08 µM
  relative viability: 0.95
Ruboxistaurin + Olaparib; first compound 0.8 µM
  relative viability: 1.02
Ruboxistaurin + Olaparib; first compound 2.53 µM
  relative viability: 0.976
Ruboxistaurin + Olaparib; first compound 8 µM
  relative viability: 1.08
Ruboxistaurin; 0.08 µM
  relative viability: 1.06
Ruboxistaurin; 0.8 µM
  relative viability: 1
Ruboxistaurin; 2.53 µM
  relative viability: 1.01
Ruboxistaurin; 8 µM
  relative viability: 1.09
